According to patent EP4748837A1, “AROMATIC AMIDE DERIVATIVE, AND PREPARATION METHOD THEREFOR AND USE THEREOF” (Zhejiang Hisun Pharmaceutical Co., Ltd., priority 2023, dated 2025):

Legend:
[1] = target: T1, recombinant human KIF18A (Homo sapiens, UniProt Q8NI77); assay: Inhibition of KIF18A enzyme activity (ADP-Glo assay); type: biochemical; details: recombinant human KIF18A 100 nM, ATP 60 µM, tubulin, paclitaxel; read-out: IC50
T1 construct: purchased GenScript
Protocol: Inhibition degrees of the compounds of the present invention on recombinant human KIF18A enzyme activity in vitro were determined by the following method. An ADP-Glo™ Kinase Assay kit (article number V9102) from Promega Company was used in this method. Detailed experimental operation referred to the instruction of the kit.
An experimental process was briefly described as follows: a test compound was dissolved in DMSO first to prepare a stock solution, then the stock solution was gradiently diluted with a reaction buffer A ([…], 0.01% Pluronic F-68), and a final concentration of the test compound in the reaction system was in a range of 10000 nM-0.15 nM; and a KIF18A protein and ATP working solution was prepared by using a reaction buffer B (15 mM Tris, pH 7.5, 10 mM MgCl2, 0.01% Pluronic F-68, 37.5 µg/ml tubulin, 1.25 µM paclitaxel). The reaction was carried out in a 384-well microplate. The test compound and the recombinant human KIF18A protein (final concentration of 100 nM, entrusted to GenScript for expression) were added into the wells and incubated at room temperature for 20 minutes, and subsequently, an ATP solution (component V915A from the ADP-Glo™ Kinase Assay kit, final concentration of 60 µM) was added to the reaction solution and the system was incubated at room temperature for 20 minutes. Subsequently, 5 µL of ADP-Glo Reagent was added to the reaction systemand the system was incubated at room temperature for 50 minutes. Then, 10 µL of Kinase Detection Reagent was added to the reaction system and the system was incubated at room temperature for 30 minutes. After the incubation was ended, a chemiluminiscence intensity value of each well was determined by a microplate reader in a Luminescence mode.

[2] = system: OVCAR-3 cells; assay: Inhibition of OVCAR-3 cell proliferation (CellTiter-Glo cell viability); type: cell-based; details: Homo sapiens; OVCAR-3 cells (TP53 R248Q mutation), 72 hours culture with compound; read-out: IC50
Protocol: (§1) Influences of the compounds of the present invention on OVCAR-3 cell proliferation were determined by the following method. OVCAR-3 cells (containing TP53 R248Q mutation) were purchased from the Cell Bank of Shanghai Institute of Biochemistry and Cell Biology, Chinese Academy of Sciences, and cultured in an RPMI 1640 culture medium containing 10% fetal bovine serum, 100 U penicillin and 100 µg/mL streptomycin. A cell viability was determined by a CellTiter-Glo® Luminescent Cell Viability Assay kit (Promega, article number G7573).
(§2) An experimental method was operated according to steps in the instruction of the kit, which was briefly described as follows: a test compound was dissolved in DMSO first to prepare a 10 mM stock solution, then the stock solution was diluted with the culture medium to prepare a test sample, and a final concentration of the compound was in a range of 1000 nM-0.015 nM. Cells in a logarithmic growth phase were inoculated into a 96-well cell culture plate at a density of 1000 cells per well, cultured in a 5% CO2 incubator at 37°C overnight, and then the test compound was added to continuously culture for 72 hours. After the culture was ended, 50 uL of CellTiter-Glo detection solution was added to each well , shaken for 5 minutes, and then allowed to stand for 10 minutes, and subsequently, a luminance value of each well of the sample was read by a microplate reader in a Luminescence mode. By comparing with the numerical value of a control group (0.3% DMSO), a percentage inhibition rate of the compound at each concentration point was calculated, and then nonlinear regression analysis was carried out based on concentration logarithm-inhibition rate of the compound in GraphPad Prism 5 software, so as to obtain an IC50 value of the compound for inhibiting the cell proliferation, which was as shown in Table 1. Table 1 IC50 data of the compounds of the present invention for inhibiting OVCAR-3 cell proliferation

[3] = system: HT-29 cells; assay: Inhibition of HT-29 cell proliferation (CellTiter-Glo cell viability); type: cell-based; details: Homo sapiens; HT-29 cells (TP53 R273H mutation), 120 hours culture with compound; read-out: IC50
Protocol: as §1, with “HT-29” for “OVCAR-3”, “R273H” for “R248Q”, “a McCOY's 5A” for “an RPMI 1640”
as §2, with “for 120” for “for 72”, “each well,” for “each well ,”, “Table 2.” for “Table 1.”, “Table 2” for “Table 1”, “inhibiting HT-29” for “inhibiting OVCAR-3”

T1 sequence (Q8NI77 whole entry): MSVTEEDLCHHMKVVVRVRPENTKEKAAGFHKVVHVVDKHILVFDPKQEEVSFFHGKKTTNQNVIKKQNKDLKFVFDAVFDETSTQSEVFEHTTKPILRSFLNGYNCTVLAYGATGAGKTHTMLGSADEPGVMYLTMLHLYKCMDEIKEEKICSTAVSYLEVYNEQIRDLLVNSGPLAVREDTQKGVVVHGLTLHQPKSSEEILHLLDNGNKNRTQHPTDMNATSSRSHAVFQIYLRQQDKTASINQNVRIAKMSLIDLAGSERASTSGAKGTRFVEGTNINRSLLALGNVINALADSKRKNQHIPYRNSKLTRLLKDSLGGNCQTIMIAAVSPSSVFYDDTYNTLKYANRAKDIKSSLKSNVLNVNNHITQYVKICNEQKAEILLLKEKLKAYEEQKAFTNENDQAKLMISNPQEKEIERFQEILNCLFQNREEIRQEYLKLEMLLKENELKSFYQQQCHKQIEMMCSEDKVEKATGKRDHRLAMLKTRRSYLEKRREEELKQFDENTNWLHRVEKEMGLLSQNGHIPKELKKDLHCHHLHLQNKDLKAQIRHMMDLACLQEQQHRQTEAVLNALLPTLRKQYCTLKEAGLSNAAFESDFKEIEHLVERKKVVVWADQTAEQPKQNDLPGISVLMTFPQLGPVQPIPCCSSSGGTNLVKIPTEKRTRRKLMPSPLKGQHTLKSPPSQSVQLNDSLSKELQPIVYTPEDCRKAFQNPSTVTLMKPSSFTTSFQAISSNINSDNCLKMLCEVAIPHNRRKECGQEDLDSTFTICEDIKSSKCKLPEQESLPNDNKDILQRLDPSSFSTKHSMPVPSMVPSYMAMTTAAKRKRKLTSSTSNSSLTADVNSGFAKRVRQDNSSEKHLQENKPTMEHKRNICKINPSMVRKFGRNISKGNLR
T1 sequence (P68363 whole entry partner): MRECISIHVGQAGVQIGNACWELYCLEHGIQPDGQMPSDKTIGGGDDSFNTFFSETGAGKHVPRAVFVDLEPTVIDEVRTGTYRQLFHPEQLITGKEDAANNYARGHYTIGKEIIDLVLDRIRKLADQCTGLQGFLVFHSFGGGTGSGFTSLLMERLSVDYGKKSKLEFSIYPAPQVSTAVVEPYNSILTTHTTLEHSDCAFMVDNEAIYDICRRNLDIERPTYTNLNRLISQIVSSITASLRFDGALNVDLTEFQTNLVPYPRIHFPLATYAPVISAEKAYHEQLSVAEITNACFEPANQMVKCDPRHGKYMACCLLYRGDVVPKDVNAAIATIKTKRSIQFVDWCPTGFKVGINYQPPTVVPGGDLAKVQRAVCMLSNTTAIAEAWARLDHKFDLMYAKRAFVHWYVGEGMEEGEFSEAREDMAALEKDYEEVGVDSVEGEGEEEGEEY
T1 sequence (Q9BVA1 whole entry partner): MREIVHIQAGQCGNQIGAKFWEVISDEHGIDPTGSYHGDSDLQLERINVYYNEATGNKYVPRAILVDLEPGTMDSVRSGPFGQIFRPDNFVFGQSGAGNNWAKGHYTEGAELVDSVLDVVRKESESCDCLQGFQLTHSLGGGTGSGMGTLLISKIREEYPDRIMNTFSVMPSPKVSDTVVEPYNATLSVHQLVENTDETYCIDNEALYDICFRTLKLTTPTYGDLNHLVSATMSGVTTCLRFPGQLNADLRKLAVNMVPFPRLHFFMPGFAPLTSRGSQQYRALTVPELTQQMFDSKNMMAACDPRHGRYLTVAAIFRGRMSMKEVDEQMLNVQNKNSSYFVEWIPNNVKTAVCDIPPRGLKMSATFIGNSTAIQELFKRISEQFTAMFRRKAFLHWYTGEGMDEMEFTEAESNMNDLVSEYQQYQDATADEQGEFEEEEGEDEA

**Q.** `CCS(=O)(=O)Nc1ccc(C(=O)Nc2ccc(C(=O)O)c(N3CCC(F)(F)CC3)c2)c(N2CCC3(CC2)CC3)c1` [Example 2, 2-(4,4-difluoropiperidin-1-yl)-4-(4-(ethylsulfonamido)-2-(6-azaspiro[2.5]octan-6-yl)benzamido)benzoic acid] was tested. Which IC50 [1] did it give?
**A.** The IC50 was 29.5 nM.

**Q.** And the IC50 [2]?
**A.** The IC50 was 42.9 nM.

**Q.** How did the IC50 [1] turn out when `CCS(=O)(=O)Nc1ccc(C(=O)Nc2ccc(-c3cccnn3)c(N3CCC(F)(F)CC3)c2)c(N2CCC3(CC2)CC3)c1` [Example 12, N-(3-(4,4-difluoropiperidin-1-yl)-4-(pyridazin-3-yl)phenyl)-4-(ethylsulfonamido)-2-(6-azaspiro[2.5]octan-6-yl)benzamide] was run?
**A.** Its IC50 is 62.4 nM.

**Q.** What about the IC50 [3] of the same molecule?
**A.** The IC50 was 3.9 nM.

**Q.** What about the IC50 [2] of the same molecule?
**A.** Its IC50 is 2.5 nM.

**Q.** Which IC50 [1] does the source give for `CCS(=O)(=O)Nc1ccc(C(=O)Nc2ccc(-c3ccnnc3)c(N3CCC(F)(F)CC3)c2)c(N2CCC3(CC2)CC3)c1` [Example 13, N-(3-(4,4-difluoropiperidin-1-yl)-4-(pyridazin-4-yl)phenyl)-4-(ethylsulfonamido)-2-(6-azaspiro[2.5]octan-6-yl)benzamide] here?
**A.** Its IC50 is 82.9 nM.

**Q.** What about the IC50 [3] of the same molecule?
**A.** The IC50 was 11.5 nM.

**Q.** And the IC50 [2]?
**A.** Its IC50 is 5.9 nM.

**Q.** With `CCS(=O)(=O)Nc1ccc(C(=O)Nc2ccc(-c3ncccn3)c(N3CCC(F)(F)CC3)c2)c(N2CCC3(CC2)CC3)c1` [Example 14, N-(3-(4,4-difluoropiperidin-1-yl)-4-(pyrimidin-2-yl)phenyl)-4-(ethylsulfonamido)-2-(6-azaspiro[2.5]octan-6-yl)benzamide] as the molecule, how does the IC50 [1] read?
**A.** Its IC50 is 120 nM.

**Q.** And the IC50 [3]?
**A.** The IC50 was 10.1 nM.

**Q.** What about the IC50 [2] of the same molecule?
**A.** The IC50 was 5.9 nM.

**Q.** Which results are given for `O=C(Nc1ccc(-c2cccnn2)c(N2CCC(F)(F)CC2)c1)c1ccc(NS(=O)(=O)C2CC2)cc1N1CCC2(CC1)CC2` [Example 15, 4-(cyclopropanesulfonamido)-N-(3-(4,4-difluoropiperidin-1-yl)-4-(pyridazin-3-yl)phenyl)-2-(6-azaspiro[2.5]octan-6-yl)b enzamide]?
**A.** IC50 [1]: 69.4 nM; IC50 [3]: 4.7 nM; IC50 [2]: 3.7 nM

**Q.** For `CCS(=O)(=O)Nc1ccc(C(=O)Nc2ccc(-c3nccn3C)c(N3CCC(F)(F)CC3)c2)c(N2CCC3(CC2)CC3)c1` [Example 26, N-(3-(4,4-difluoropiperidin-1-yl)-4-(1-methyl-1H-imidazol-2-yl)phenyl)-4-(ethylsulfonamido)-2-(6-azaspiro[2.5]octan-6-yl)benzamide], which IC50 [1] is on record?
**A.** The IC50 was 106 nM.

**Q.** What about the IC50 [3] of the same molecule?
**A.** Its IC50 is 30.8 nM.

**Q.** Which results are given for `CCS(=O)(=O)Nc1ccc(C(=O)Nc2ccc(-n3cnnc3)c(N3CCC(F)(F)CC3)c2)c(N2CCC3(CC2)CC3)c1` [Example 27, N-(3-(4,4-difluoropiperidin-1-yl)-4-(4H-1,2,4-triazol-4-yl)phenyl)-4-(ethylsulfonamido)-2-(6-azaspiro[2.5]octan-6-yl)benz amide]?
**A.** IC50 [1]: 30.9 nM; IC50 [2]: 8.1 nM

**Q.** Which IC50 [1] does the source give for `CCS(=O)(=O)Nc1ccc(C(=O)Nc2ccc(-c3nnn[nH]3)c(N3CCC(F)(F)CC3)c2)c(N2CCC3(CC2)CC3)c1` [Example 33, N-(3-(4,4-difluoropiperidin-1-yl)-4-(1H-tetrazol-5-yl)phenyl)-4-(ethylsulfonamido)-2-(6-azaspiro[2.5]octan-6-yl)benzamide] here?
**A.** The IC50 was 3.8 nM.

**Q.** Which IC50 [1] does the source give for `CCS(=O)(=O)Nc1ccc(C(=O)Nc2ccc(-c3nnnn3C)c(N3CCC(F)(F)CC3)c2)c(N2CCC3(CC2)CC3)c1` [Example 34, N-(3-(4,4-difluoropiperidin-1-yl)-4-(1-methyl-1H-tetrazol-5-yl)phenyl)-4-(ethylsulfonamido)-2-(6-azaspiro[2.5]octan-6-yl)benzamide] here?
**A.** The IC50 was 90 nM.

**Q.** And the IC50 [2]?
**A.** The IC50 was 49.8 nM.

**Q.** With `CCS(=O)(=O)Nc1ccc(C(=O)Nc2ccc(-n3ccnc3)c(N3CCC(C)(O)CC3)c2)c(N2CCC3(CC2)CC3)c1` [Example 42, 4-(ethylsulfonamido)-N-(3-(4-hydroxy-4-methylpiperidin-1-yl)-4-(1H-imidazol-1-yl)pheny 1)-2-(6-azaspiro[2.5]octan-6-yl)benzamide] as the molecule, how does the IC50 [1] read?
**A.** The IC50 was 88 nM.

**Q.** Which IC50 [1] does the source give for `CCS(=O)(=O)Nc1ccc(C(=O)Nc2ccc(-c3ncc[nH]3)c(N3CCC(C)(O)CC3)c2)c(N2CCC3(CC2)CC3)c1` [Example 43, 4-(ethylsulfonamido)-N-(3-(4-hydroxy-4-methylpiperidin-1-yl)-4-(1H-imidazol-2-yl)pheny 1)-2-(6-azaspiro[2.5]octan-6-yl)benzamide] here?
**A.** The IC50 was 115 nM.

**Q.** What about the IC50 [2] of the same molecule?
**A.** Its IC50 is 18.8 nM.

**Q.** Which results are given for `CCS(=O)(=O)Nc1ccc(C(=O)Nc2ccc(-n3ccnc3)c(C3(O)CCC(F)(F)CC3)c2)c(N2CCC3(CC2)CC3)c1` [Example 44, N-(3-(4,4-difluoro-1-hydroxycyclohexyl)-4-(1H-imidazol-1-yl)phenyl)-4-(ethylsulfonamido)-2-(6-azaspiro[2.5]octan-6-yl)benzamide]?
**A.** IC50 [1]: 130 nM; IC50 [2]: 45.5 nM

**Q.** `CCS(=O)(=O)Nc1ccc(C(=O)Nc2ccc(-c3ccnnc3)c(OC3CC(F)(F)C3)c2)c(N2CCC3(CC2)CC3)c1` [Example 48, N-(3-(3,3-difluorocyclobutoxy)-4-(pyridazin-4-yl)phenyl)-4-(ethylsulfonamido)-2-(6-azaspiro[2.5]octan-6-yl)benzamide] was tested. Which IC50 [1] did it give?
**A.** Its IC50 is 102 nM.

**Q.** And the IC50 [2]?
**A.** Its IC50 is 14.4 nM.

**Q.** With `CCS(=O)(=O)Nc1ccc(C(=O)Nc2ccc(-c3nnco3)c(OC3CC(F)(F)C3)c2)c(N2CCC3(CC2)CC3)c1` [Example 50, N-(3-(3,3-difluorocyclobutoxy)-4-(1,3,4-oxadiazol-2-yl)phenyl)-4-(ethylsulfonamido)-2-(6-azaspiro[2.5]octan-6-yl)benzamide] as the molecule, how does the IC50 [1] read?
**A.** The IC50 was 74.3 nM.

**Q.** And the IC50 [2]?
**A.** Its IC50 is 19.1 nM.

**Q.** Which IC50 [1] does the source give for `CCS(=O)(=O)Nc1ccc(C(=O)Nc2ccc(-c3nnco3)c(OCC(F)(F)F)c2)c(N2CCC3(CC2)CC3)c1` [Example 51, N-(4-(1,3,4-oxadiazol-2-yl)-3-(2,2,2-trifluoroethoxy)phenyl)-4-(ethylsulfonamido)-2-(6-azaspiro[2.5]octan-6-yl)benzamide] here?
**A.** Its IC50 is 107 nM.

**Q.** What about the IC50 [2] of the same molecule?
**A.** Its IC50 is 27.4 nM.

**Q.** What does the source list for `CCS(=O)(=O)Nc1ccc(C(=O)Nc2ccc(-c3nnc(C)o3)c(OCC(F)(F)F)c2)c(N2CCC3(CC2)CC3)c1` [Example 52, 4-(ethylsulfonamido)-N-(4-(5-methyl-1,3,4-oxadiazol-2-yl)-3-(2,2,2-trifluoroethoxy)phenyl) -2-(6-azaspiro[2.5]octan-6-yl) benzamide]?
**A.** IC50 [1]: 125 nM; IC50 [2]: 17.9 nM

**Q.** With `[2H]C([2H])([2H])Oc1ccc(NC(=O)c2ccc(NS(=O)(=O)CC)cc2N2CCC3(CC2)CC3)cc1N1CCC(F)(F)CC1` [Example 57, N-(3-(4,4-difluoropiperidin-1-yl)-4-(methoxy-d3)phenyl)-4-(ethylsulfonamido)-2-(6-azaspiro[2.5]octan-6-yl)benzamide] as the molecule, how does the IC50 [3] read?
**A.** The IC50 was 4.5 nM.

**Q.** And the IC50 [2]?
**A.** The IC50 was 8.7 nM.
